Measured values from patent US20190336537A1, “GENERATING ATRIAL AND VENTRICULAR CARDIOMYOCYTE LINEAGES FROM HUMAN PLURIPOTENT STEM CELLS” (UNIVERSITY HEALTH NETWORK, priority 2016, published 2019).

Columns and labels:
[1] = system: HES3 NKX2-5:GFP hESC-derived mesoderm; assay: Specification of mesoderm populations to an atrial fate by ROH or RA (day 20 flow cytometry and qRT-PCR); assay type: cell-based, human; details: day 4, 5B/4A induced
[2] = system: HES3 NKX2-5:GFP hESC-derived mesoderm; assay: as above; assay type: cell-based, human; details: for atrial specification (MLC2V+, IRX4, KCNJ3, NR2F2): treated days 3-5
Experimental: To determine if the ALDH^+ cells can synthesize RA, the ALDH^+PDGFRalpha^+ and ALDH^− PDGFRalpha^+ fractions were isolated from the day 4 3B/2A-induced population, and the cells were cultured as aggregates in retinol (ROH), RA, or DMSO (control) for 24 hr (FIGS. 3A and 3B). ALDH1A2 expression segregated to the ALDH^+ fraction, confirming the validity of aldefluor-based sorting strategy for isolating RALDH2-expressing cells (FIG. 3C).
(§1) For cardiac differentiation, we used a modified version of our embryoid body (EB)-based protocol (Kattman et al., 2011). hPSC populations at 80%-90% confluence were dissociated into single cells (TrypLE, ThermoFisher) and re-aggregated to form EBs in StemPro-34 media (ThermoFisher) containing penicillin/streptomycin (1%, ThermoFisher), L-glutamine (2 mM, ThermoFisher), trans-ferrin (150 μg/ml, ROCHE), ascorbic acid (50 μg/ml, Sigma), and monothioglycerol (50 μg/ml, Sigma), ROCK inhibitor Y-27632 (10 μM, TOCRIS) and rhBMP4 (1 ng/ml, R&D) for 18 h on an orbital shaker. At day 1, the EBs were transferred to mesoderm induction media consisting of StemPro-34 with above supplements (-ROCK inhibitor Y-27632) and rhBMP4, rhActivinA (R&D) and rhbFGF (5 ng/ml, R&D) at the indicated concentrations. At day 3, the EBs were harvested, washed with IMDM and transferred to cardiac mesoderm specification media consisting of StemPro-34, the Wnt inhibitor IWP2 (1 μM, TOCRIS) and rhVEGF (10 ng/mL, R&D). At day 5, the EBs were transferred to Stem Pro-34 with rhVEGF (5 ng/ml) for another 7 days and then to Stem Pro-34 media without additional cytokines for further 8 days. At day 20, HES3-NKX2-5gfp/w-derived cardiomyocytes were analyzed and isolated based on the expression of NKX2-5:GFP and SIRPa and a lack of CD90. Cardiomyocytes generated from non-transgenic hPSC lines were analyzed and isolated as SIRPa+CD90− populations. Media was changed every 3 days. Cultures were incubated in a low oxygen environment (5% CO2, 5% O2, 90% N2) for first 12 days and a normoxic environment (5% CO2) for the following 8 days in total of 20 days. The EBs were cultured in ultra-low attachment 6-well dishes (Corning) throughout the differentiation for maintaining suspension cultures.
Following optimization, either ATRA (0.5 μM, Sigma) or retinol (2 μM, Sigma) was included in the cardiac mesoderm specification media from days 3-5 for the generation of atrial cardiomyocytes.
(§2) Day 2-6 EBs were dissociated with TrypLE for 2-4 min at room temperature (RT). Day 20 EBs were dissociated by incubation in Collagenase type 2 (0.5 mg/ml, Worthington) in HANKs buffer overnight at RT followed by TrypLE treatment as described above. The following antibodies were used for staining: anti-PDGFRa-PE (R&D Systems, 3:50), anti-CD235a-APC (BD PharMingen, 1:100), antiSIRPa-PeCy7 (Biolegend, 1:1000), anti-CD90-APC (BD PharMingen, 1:1000), anticardiac isoform of CTNT (ThermoFisher Scientific, 1:2000), or anti-myosin light chain 2 (Abcam, 1:1000). For unconjugated primary antibodies, the following secondary antibodies were used for detection: goat anti-mouse IgG-APC (BD Pharmigen, 1:250), or donkey anti-rabbit IgG-PE (Jackson ImmunoResearch, 1:250). Detailed antibody information is described in Table 2.
The Aldefluor™ assay (STEMCELL Technologies) was performed according to the instruction provided by the manufacturer. Briefly, day 2-6 EBs were dissociated as described above. […] Stained cells were analyzed as described above. […]

[3] = system: HES2 human embryonic stem cell derived EBs; assay: ROH/RA response of HES2-derived EBs (day 20 flow cytometry and qRT-PCR); assay type: cell-based; details: treated days 3 to 5
From the text: (§3) To determine if the approach for optimizing atrial and ventricular differentiation based on ALDH activity and CD235a expression is broadly applicable, we next used it to generate these cardiomyocyte populations from the HES2 human embryonic stem cell and the MSC-iPS1 induced pluripotent stem cell lines. Titration studies identified 5B/2A and 5B/6A as optimal for atrial and ventricular inductions, respectively, for HES2 cells and 4B/4A as optimal for ventricular induction for MSCiPSC1 cells (FIGS. 7A, 7B, 7E, and 7F; Mendeley http://dx.doi.org/10.17632/7z7d5v2c3w.1). Optimization of atrial induction from the MSC-iPSC1 cells was more challenging, as all cytokine combinations promoted the development of a substantial CD235a+ population. One interpretation of these patterns is that the MSC-iPS1 cells have a high level of endogenous Nodal/Activin A signaling, resulting in the development of some CD235a+ cells under all conditions. To test this, we added the Nodal/Activin A/transforming growth factor beta (TGF-beta) inhibitor SB-431542 (SB) from days 3 to 5 to cells induced with 4B/1A.
as §1, with “The EBs were cultured in ultra-low attachment 6-well dishes (Corning) throughout the differentiation for maintaining suspension cultures.” left out

[4] = system: MSC-iPS1 induced pluripotent stem cell line derived EBs; assay: ROH/RA response of MSC-iPS1-derived EBs (day 20 flow cytometry and qRT-PCR); assay type: cell-based, human; details: treated days 3 to 5
From the text: as §3
as §1, with “The EBs were cultured in ultra-low attachment 6-well dishes (Corning) throughout the differentiation for maintaining suspension cultures.” left out

[5] = system: MSC-iPS1 induced pluripotent stem cell line derived EBs; assay: Flow cytometry of ALDH activity and CD235a in MSC-iPS1-derived EBs treated with SB-431542; assay type: cell-based, human; details: SB days 3 to 5, cells induced with 4B/1A
From the text: as §3, §2
The Aldefluor™ assay (STEMCELL Technologies) was performed according to the instruction provided by the manufacturer. […] Stained cells were analyzed as described above. […]

Structure (SMILES) | atrial specification (MLC2V+, IRX4, NPPA, KCNJ3, NR2F2) ([1]; CD235a+ALDH− fraction) | atrial specification (MLC2V+, IRX4, NPPA, KCNJ3, NR2F2) ([1]; CD235a−ALDH+ fraction) | atrial specification (MLC2V+, IRX4, KCNJ3, NR2F2) ([2]; 3B/2A-induced EBs) | atrial specification (MLC2V+, IRX4, KCNJ3, NR2F2) ([2]; 5B/12A-induced EBs) | atrial specification (MLC2V+ frequency, IRX4, KCNJ3) ([2]; ALDH+PDGFRalpha+ fraction, day 4, 3B/2A induced, 24 hr treatment) | response of ALDH+ mesoderm (atrial expression profile) ([3]; HES2, 5B/2A induced) | response of CD235a+ mesoderm (MLC2V content, MYL2, IRX4, KCNJ3, NR2F2) ([3]; HES2, 5B/6A induced) | response of ALDH+ mesoderm (atrial expression profile) ([4]; MSC-iPS1, 4B/1A+SB induced) | response of CD235a+ mesoderm (MLC2V content, MYL2, IRX4, KCNJ3, NR2F2) ([4]; MSC-iPS1, 4B/4A induced) | CD235a+ cells [5] | CTNT+MLC2V− cardiogenic potential of the mesoderm [5] | size of the ALDH+ population [5]
CC1=C(/C=C/C(C)=C/C=C/C(C)=C/CO)C(C)(C)CCC1 [ROH, retinol] | no response | gave rise to an atrial-like cardio-myocyte population | responded to ROH and generated an atrial-like cardiomyocyte population | did not respond | generated an atrial-like cardiomyocyte population | responded to both ROH and RA | Neither CD235a+ mesoderm population responded | responded to both ROH and RA | Neither CD235a+ mesoderm population responded | – | – | –
NC(=O)c1ccc(-c2nc(-c3ccc4c(c3)OCO4)c(-c3ccccn3)[nH]2)cc1 [SB-431542] | – | – | – | – | – | – | – | – | – | reduction | without affecting | increase in the size
